Patent EP2878677A1, “Activators of protein phosphatase 5” (Deutsches Zentrum für Neurodegenerative Erkrankungen e.V. …, priority 2013, dated 2015)

System: human tau-P301L-transfected mice brains
Assay: human tau-P301L-transfected mice treated via mini-osmotic pumps, immunohistochemistry of the hippocampus
Assay type: in vivo, C57BL/6 mice
Protocol: All protocols for animal experiments described in this study were performed according to the German laws for animal experimentation (Tierschutzgesetz) from 1998. The study was approved by the authorities of the State of Saxony-Anhalt (Landesverwaltungsamt) and performed according to institutional guidelines. Animals were maintained under constant environmental conditions with ambient temperature of 20 ± 2 °C and relative humidity of 50%. They were housed with a 12 hour light-dark cycle and given food and water ad libitum. Adult wild-type C57BL/6 mice (10 weeks old) obtained from Charles River Laboratories (Sulzfeld, Germany) were used for all studies. 4% halothane in a mixture of nitrous oxide/oxygen (ratio 70:30) was used for the induction of anesthesia and 1 to 1.5% halothane for the maintenance of anesthesia. Halothane was applied via a nose cone. Throughout all surgical procedures, the animal's body temperature was kept at 37°C using a thermostatically controlled heating blanket. Intracerebral injection of viral particles into the hippocampus of the right brain hemisphere of anesthetized mice was performed stereotactically at coordinates 2.6 mm posterior to bregma, lateral 1.0 mm and ventral 2.0 mm. 2 µl of high titer viral suspension were injected with a fixed syringe (Hamilton Company, Reno, NV, USA). After injection at a rate of 0.2 µl/min, the cannula was left in place for further 30 sec before slow withdrawal. After surgery, the wound was sutured.
Mini-osmotic pumps (Model 2006, Alzet, Palo Alto, CA, USA) were implanted intraperitoneal (ip) through a midline incision immediately after P301L transfection. During implantation, animals remained under halothane anesthesia (details above). The pumps (internal volume: 245.6 µl) were loaded with one of the following substances: P5SA-2, P5SA-3, P5SA-4, P5SA-5 or corresponding vehicle solution (DMSO/polyethylene glycol 400 (50:50 w/w) without drug. P5SA (final concentration 1 mg/kg/day) or vehicle infusion (ip) started immediately after transplantation with a continuous flow rate of 0.15 µl/h and was maintained for 6 weeks.
6 weeks after P301L transfection, mice were anesthetized by ip injection of 4% chloral hydrate in PBS, transcardially perfused with ice-cold PBS and fixed with 4% paraformaldehyde in 0.1 M PBS. Immediately after fixation, animals were decapitated. The brains were removed and post-fixed in the same fixative overnight. Fixed brains were placed in a mouse brain matrix (Activational Systems Inc., Warren, USA) and transected into defined coronal brain slices (thickness 1 mm) along the anterior-posterior axis. After incubation in 30% sucrose containing PBS for cryoprotection, 20 µm-thick frontal sections, comprising the hippocampal formation, were cut using a cryostat (Microm International GmbH, Walldorf, Germany). For immunohistochemical staining, sections were washed in 0.1 M PBS. Free-floating sections were permeabilized with 0.2% Triton X-100 in PBS containing 10% normal horse serum for 30 min. After washing with PBS, unspecific antibody binding was blocked by 10% normal horse serum for 30 min, followed by a further wash in 0.1 M PBS. Then, sections were incubated with primary antibodies. For immunofluorescence staining, primary antibodies directed against total tau (human plus endogenous mice tau, K9JA) and MAP2 (microtubule-associated protein 2), respectively, were applied simultaneously. Alternatively, the primary antibodies AT8 (human phospho-tau, AT8 (Ser202/Thr205) phosphorylation site) and the human tau-specific primary antibody tau-13 were used individually. After overnight incubation at 4°C, sections were rinsed with 0.1 M PBS. Sections exposed to the primary antibody combination K9JA/MAP2 were incubated with the complementary secondary antibodies goat anti-rabbit IgG Alexa Fluor 488 and goat anti-mouse IgG Alexa Fluor 594. AT8 and tau-13 were visualized with goat anti-mouse IgG Alexa Fluor 594. […]

[1] = 1 mg/kg/day, continuous ip infusion for 6 weeks

Compound | phosphorylation of human tau-P301L at its AT8 epitope (Ser202/Thr205) [1] | tau-P301L-dependent pattern of neuronal degeneration in the hippocampal formation [1] | numbers of AT8-positive perikarya of CA3 pyramidal neurons per hippocampal slice (1 mg/kg/day ip for 6 weeks, mean ± SEM, vehicle 7.0 ± 2.0, P< 0.0001) | tau-P301L-dependent localization of total tau signals in the perikarya of CA1 and CA3 pyramidal neurons [1]
O=c1cc2nc(-c3ccc(F)cc3)nc(SCc3ccc(Br)cc3)n2[nH]1 [P5SA-4] | diminished | not observed | – | –
COc1ccc(-c2nc(Cc3ccc(Cl)cc3)no2)cc1OC [P5SA-2] | diminished | not observed | – | –
CN1CCc2c(sc(-n3cccc3)c2CNC(=O)NC23CC4CC(CC(C4)C2)C3)C1 [P5SA-3] | diminished | not observed | – | –
CNC(=O)c1c(NC(=O)COCC(=O)Nc2sc3c(c2C(=O)NC)CCC3)sc2c1CCC2 [P5SA-5] | remarkably reduced | decreased | 2.2 ± 1.4 | remained unaffected
